Data from ChEMBL document CHEMBL1155011, “Structure-activity relationships of the cycloalkanol ethylamine scaffold: discovery of selective norepinephrine reuptake inhibitors” (J Med Chem, 2008).
Values belong to the molecule of their own block, whether it stands above or below them.

Assays:
[1] = target: T1, Sodium-dependent noradrenaline transporter (Homo sapiens, UniProt P23975); assay: Displacement of [3H]nisoxetine from human norepinephrine transporter expressed in MDCK-Net6 cells at 1000 nM; format: cell-based
T1 sequence (P23975 whole entry): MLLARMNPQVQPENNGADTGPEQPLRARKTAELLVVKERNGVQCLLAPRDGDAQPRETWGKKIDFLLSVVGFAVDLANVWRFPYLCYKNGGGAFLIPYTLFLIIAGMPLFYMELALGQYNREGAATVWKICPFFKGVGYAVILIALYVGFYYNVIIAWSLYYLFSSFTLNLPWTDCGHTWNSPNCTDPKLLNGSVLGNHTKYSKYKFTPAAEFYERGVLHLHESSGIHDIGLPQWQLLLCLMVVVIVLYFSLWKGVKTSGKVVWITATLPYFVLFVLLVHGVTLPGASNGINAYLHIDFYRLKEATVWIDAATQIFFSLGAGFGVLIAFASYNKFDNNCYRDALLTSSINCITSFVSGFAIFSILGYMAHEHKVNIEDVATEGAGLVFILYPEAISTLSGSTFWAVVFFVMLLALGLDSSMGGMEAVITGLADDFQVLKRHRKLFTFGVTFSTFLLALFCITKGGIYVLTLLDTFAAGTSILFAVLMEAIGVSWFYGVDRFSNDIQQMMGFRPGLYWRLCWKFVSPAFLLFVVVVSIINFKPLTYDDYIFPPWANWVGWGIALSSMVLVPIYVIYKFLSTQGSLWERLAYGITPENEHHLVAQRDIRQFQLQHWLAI

[2] = target: T1, Sodium-dependent noradrenaline transporter; assay: Inhibition of norepinephrine uptake at human norepinephrine transporter expressed in MDCK-Net6 cells at 1000 nM; format: cell-based
[3] = target: T2, Sodium-dependent serotonin transporter (Homo sapiens, UniProt P31645); assay: Inhibition of 5HT uptake at human SERT expressed in human JAR cells at 1000 nM; format: cell-based
Target sequence in this assay (P31645 whole entry, looked up): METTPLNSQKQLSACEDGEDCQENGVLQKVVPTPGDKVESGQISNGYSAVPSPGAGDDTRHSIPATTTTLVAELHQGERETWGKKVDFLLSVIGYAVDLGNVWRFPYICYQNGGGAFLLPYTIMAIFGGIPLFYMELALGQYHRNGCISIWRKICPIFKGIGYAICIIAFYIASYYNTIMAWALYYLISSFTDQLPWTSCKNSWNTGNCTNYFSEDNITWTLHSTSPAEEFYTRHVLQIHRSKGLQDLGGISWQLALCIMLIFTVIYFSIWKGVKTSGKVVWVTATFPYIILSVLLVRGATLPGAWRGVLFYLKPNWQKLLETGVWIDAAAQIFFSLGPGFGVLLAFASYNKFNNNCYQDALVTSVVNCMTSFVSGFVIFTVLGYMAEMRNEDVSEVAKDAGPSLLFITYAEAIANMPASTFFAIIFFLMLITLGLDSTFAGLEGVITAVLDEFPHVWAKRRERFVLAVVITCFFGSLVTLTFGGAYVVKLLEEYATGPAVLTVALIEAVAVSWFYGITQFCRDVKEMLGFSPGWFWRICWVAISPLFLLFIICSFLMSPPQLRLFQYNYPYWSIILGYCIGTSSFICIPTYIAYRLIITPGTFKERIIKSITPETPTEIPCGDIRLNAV

[4] = target: T3, Sodium-dependent dopamine transporter (Homo sapiens, UniProt Q01959); assay: Displacement of [3H]WIN-35428 from human recombinant dopamine transporter expressed in CHO cells at 1000 nM; format: cell-based
T3 sequence (Q01959 whole entry): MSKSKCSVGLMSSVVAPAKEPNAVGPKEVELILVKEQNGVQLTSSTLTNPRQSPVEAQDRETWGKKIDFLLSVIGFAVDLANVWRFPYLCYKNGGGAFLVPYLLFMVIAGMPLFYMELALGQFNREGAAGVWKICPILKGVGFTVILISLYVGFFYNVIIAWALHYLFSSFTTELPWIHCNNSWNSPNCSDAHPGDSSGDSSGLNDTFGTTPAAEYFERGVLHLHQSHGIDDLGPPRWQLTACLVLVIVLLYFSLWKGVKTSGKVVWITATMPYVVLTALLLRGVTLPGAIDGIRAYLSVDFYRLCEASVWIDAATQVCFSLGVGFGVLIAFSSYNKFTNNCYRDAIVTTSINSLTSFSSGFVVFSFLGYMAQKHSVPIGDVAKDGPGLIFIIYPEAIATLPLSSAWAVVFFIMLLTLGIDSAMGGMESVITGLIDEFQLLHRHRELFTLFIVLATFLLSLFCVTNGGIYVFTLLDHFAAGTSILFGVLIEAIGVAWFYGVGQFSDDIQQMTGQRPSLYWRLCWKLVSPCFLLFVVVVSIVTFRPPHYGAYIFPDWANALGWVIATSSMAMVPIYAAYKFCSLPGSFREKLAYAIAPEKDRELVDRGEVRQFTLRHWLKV

[5] = target: T1, Sodium-dependent noradrenaline transporter; assay: biochemical
[6] = target: T1, Sodium-dependent noradrenaline transporter
[7] = target: T3, Sodium-dependent dopamine transporter; assay: biochemical
[8] = target: T2, Sodium-dependent serotonin transporter; format: cell-based, JAR
[9] = target: T4, 5-hydroxytryptamine receptor 6 (Homo sapiens, UniProt P50406); assay: Inhibition of 5HT6 receptor by competition radioligand binding assay
T4 sequence (P50406 whole entry): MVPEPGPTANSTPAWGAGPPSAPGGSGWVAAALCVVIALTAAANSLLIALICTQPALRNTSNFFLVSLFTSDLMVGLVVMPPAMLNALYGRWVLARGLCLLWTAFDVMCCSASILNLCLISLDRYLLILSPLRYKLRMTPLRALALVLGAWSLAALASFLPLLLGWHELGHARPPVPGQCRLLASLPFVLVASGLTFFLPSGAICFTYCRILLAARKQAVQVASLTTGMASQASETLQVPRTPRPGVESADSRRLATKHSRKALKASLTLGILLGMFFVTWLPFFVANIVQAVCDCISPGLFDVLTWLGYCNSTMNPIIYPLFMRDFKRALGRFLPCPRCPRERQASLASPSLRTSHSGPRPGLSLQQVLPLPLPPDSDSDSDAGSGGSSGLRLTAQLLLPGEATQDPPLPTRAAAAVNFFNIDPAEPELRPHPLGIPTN

[10] = Plasma concentration in Sprague-Dawley rat at 30 mg/kg, po after 1 hr; format: ADME, organism-based; set-up: dose 30 mg/kg, route oral
[11] = Plasma concentration in Sprague-Dawley rat at 1 mg/kg, iv after […]; format: ADME, organism-based; set-up: dose 1 mg/kg, route intravenous
[12] = target: T5, 5-hydroxytryptamine receptor 7 (Homo sapiens, UniProt P34969); assay: Activity at 5HT7 receptor assessed as calcium mobilization by FLIPR; format: functional
T5 sequence (P34969 whole entry): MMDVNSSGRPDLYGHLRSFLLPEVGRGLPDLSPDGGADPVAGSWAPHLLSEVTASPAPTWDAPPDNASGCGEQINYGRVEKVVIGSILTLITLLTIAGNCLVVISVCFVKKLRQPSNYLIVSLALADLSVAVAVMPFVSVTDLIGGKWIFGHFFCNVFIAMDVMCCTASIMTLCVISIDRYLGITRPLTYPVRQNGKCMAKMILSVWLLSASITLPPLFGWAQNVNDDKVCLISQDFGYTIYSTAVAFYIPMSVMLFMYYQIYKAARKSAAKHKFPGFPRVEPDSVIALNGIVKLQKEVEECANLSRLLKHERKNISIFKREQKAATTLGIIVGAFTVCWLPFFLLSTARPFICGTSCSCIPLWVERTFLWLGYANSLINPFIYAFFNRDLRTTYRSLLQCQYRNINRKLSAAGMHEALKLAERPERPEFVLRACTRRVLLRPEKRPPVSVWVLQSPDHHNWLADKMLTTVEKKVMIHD

[13] = target: T6, 5-hydroxytryptamine receptor 1B (Homo sapiens, UniProt P28222); assay: Inhibition of 5HT1B receptor by competition radioligand binding assay
T6 sequence (P28222 whole entry): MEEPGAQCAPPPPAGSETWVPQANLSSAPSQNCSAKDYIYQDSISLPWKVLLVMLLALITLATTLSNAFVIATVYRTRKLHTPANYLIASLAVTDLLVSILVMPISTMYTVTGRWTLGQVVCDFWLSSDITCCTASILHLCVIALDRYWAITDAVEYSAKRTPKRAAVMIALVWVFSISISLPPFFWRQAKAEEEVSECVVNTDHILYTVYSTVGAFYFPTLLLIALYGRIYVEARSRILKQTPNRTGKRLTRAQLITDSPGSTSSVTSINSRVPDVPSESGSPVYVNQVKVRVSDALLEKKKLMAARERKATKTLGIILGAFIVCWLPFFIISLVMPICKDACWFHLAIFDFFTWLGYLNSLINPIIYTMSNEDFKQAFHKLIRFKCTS

[14] = Activity at adrenergic receptor 1 alpha assessed as calcium mobilization by FLIPR
[15] = Plasma concentration in Sprague-Dawley rat at 30 mg/kg, ip after 1 hr; format: ADME, organism-based; set-up: dose 30 mg/kg, route intraperitoneal
[16] = Plasma concentration in Sprague-Dawley rat at 30 mg/kg, po after 8 hrs; format: ADME, organism-based; set-up: dose 30 mg/kg, route oral
[17] = Plasma concentration in Sprague-Dawley rat at 30 mg/kg, po after 2 hrs; format: ADME, organism-based; set-up: dose 30 mg/kg, route oral
[18] = AUC (0 to infinity) in Sprague-Dawley rat at 30 mg/kg, ip; format: ADME, organism-based; set-up: time infinity, dose 30 mg/kg, route intraperitoneal; conditions: plasma
[19] = Plasma concentration in Sprague-Dawley rat at 30 mg/kg, po after 0.5 hrs; format: ADME, organism-based; set-up: dose 30 mg/kg, route oral
[20] = Half life in Sprague-Dawley rat at 30 mg/kg, ip; format: ADME, organism-based; set-up: dose 30 mg/kg, route intraperitoneal; conditions: in vivo
[21] = Plasma concentration in Sprague-Dawley rat at 30 mg/kg, ip after 0.5 hrs; format: ADME, organism-based; set-up: dose 30 mg/kg, route intraperitoneal
[22] = Plasma concentration in Sprague-Dawley rat at 30 mg/kg, ip after […]; format: ADME, organism-based; set-up: dose 30 mg/kg, route intraperitoneal
[23] = target: T5, 5-hydroxytryptamine receptor 7; assay: Inhibition of 5HT7 receptor by competition radioligand binding assay
Rattus norvegicus [24] = assay: Effect on ovariectomy-induced thermoregulatory dysfunction in telemetry Sprague-Dawley rat model assessed as mean reduction in tail skin temperature at 30 mg/kg, ip after 6.5 hrs relative to control; format: functional; conditions: route intraperitoneal
[25] = Plasma concentration in Sprague-Dawley rat at 1 mg/kg, iv after 0.5 hrs; format: ADME, organism-based; set-up: dose 1 mg/kg, route intravenous
[26] = target: T7, 5-hydroxytryptamine receptor 1D (Homo sapiens, UniProt P28221); assay: Inhibition of 5HT1D receptor by competition radioligand binding assay
T7 sequence (P28221 whole entry): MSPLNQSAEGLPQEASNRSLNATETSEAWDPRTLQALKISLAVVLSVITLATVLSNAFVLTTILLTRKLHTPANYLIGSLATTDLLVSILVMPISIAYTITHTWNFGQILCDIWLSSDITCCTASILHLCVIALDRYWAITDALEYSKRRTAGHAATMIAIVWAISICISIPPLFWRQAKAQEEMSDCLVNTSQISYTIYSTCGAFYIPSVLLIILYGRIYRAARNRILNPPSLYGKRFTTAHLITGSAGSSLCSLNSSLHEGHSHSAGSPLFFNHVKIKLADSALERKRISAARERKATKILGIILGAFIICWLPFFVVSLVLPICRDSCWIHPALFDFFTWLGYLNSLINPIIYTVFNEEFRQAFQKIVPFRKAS

[27] = Plasma concentration in Sprague-Dawley rat at 30 mg/kg, ip after 0.033 hrs; format: ADME, organism-based; set-up: dose 30 mg/kg, route intraperitoneal
[28] = AUC (0 to infinity) in Sprague-Dawley rat at 30 mg/kg, po; format: ADME, organism-based; set-up: time infinity, dose 30 mg/kg, route oral; conditions: plasma
[29] = target: T8, 5-hydroxytryptamine receptor 2A (Homo sapiens, UniProt P28223); assay: Inhibition of 5HT2A receptor by competition radioligand binding assay
T8 sequence (P28223 whole entry): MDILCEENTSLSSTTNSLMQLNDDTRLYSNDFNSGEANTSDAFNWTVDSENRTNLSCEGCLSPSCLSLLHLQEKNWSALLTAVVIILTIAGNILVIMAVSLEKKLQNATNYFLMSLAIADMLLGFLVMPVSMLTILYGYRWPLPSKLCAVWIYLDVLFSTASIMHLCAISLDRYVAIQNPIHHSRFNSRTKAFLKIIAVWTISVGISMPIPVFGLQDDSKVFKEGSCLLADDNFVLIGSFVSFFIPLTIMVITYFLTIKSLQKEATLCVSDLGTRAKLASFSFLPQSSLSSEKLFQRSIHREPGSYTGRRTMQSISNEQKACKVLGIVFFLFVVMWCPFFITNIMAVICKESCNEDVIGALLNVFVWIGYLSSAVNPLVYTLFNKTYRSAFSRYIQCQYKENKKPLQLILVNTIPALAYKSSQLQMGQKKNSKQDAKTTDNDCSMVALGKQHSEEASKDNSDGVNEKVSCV

[30] = Plasma concentration in Sprague-Dawley rat at 30 mg/kg, ip after 8 hrs; format: ADME, organism-based; set-up: dose 30 mg/kg, route intraperitoneal
[31] = Plasma concentration in Sprague-Dawley rat at 30 mg/kg, ip after 6 hrs; format: ADME, organism-based; set-up: dose 30 mg/kg, route intraperitoneal
Mus musculus [32] = assay: Antidepressant activity in Swiss Webster mouse assessed as decrease in immobility time at 17 mg/kg, ip after 30 mins by tail suspension test; format: functional; set-up: scale not given: the % may be the effect or the level left; conditions: route intraperitoneal
[33] = Plasma concentration in Sprague-Dawley rat at 30 mg/kg, ip after 4 hrs; format: ADME, organism-based; set-up: dose 30 mg/kg, route intraperitoneal
Rattus norvegicus [34] = assay: Effect on ovariectomy-induced thermoregulatory dysfunction in telemetry Sprague-Dawley rat model assessed as mean reduction in tail skin temperature at 30 mg/kg, po after 3 hrs relative to control; format: functional
[35] = Plasma concentration in Sprague-Dawley rat at 1 mg/kg, iv after 2 hrs; format: ADME, organism-based; set-up: dose 1 mg/kg, route intravenous
[36] = target: T8, 5-hydroxytryptamine receptor 2A; assay: Activity at 5HT2A receptor assessed as calcium mobilization by FLIPR; format: functional
[37] = Inhibition of adrenergic receptor 1 alpha by competition radioligand binding assay
[38] = Plasma concentration in Sprague-Dawley rat at 30 mg/kg, po after 6 hrs; format: ADME, organism-based; set-up: dose 30 mg/kg, route oral
[39] = Plasma concentration in Sprague-Dawley rat at 30 mg/kg, po after […]; format: ADME, organism-based; set-up: dose 30 mg/kg, route oral
[40] = target: T9, 5-hydroxytryptamine receptor 2B (Homo sapiens, UniProt P41595); assay: Activity at 5HT2B receptor assessed as calcium mobilization by FLIPR; format: functional
T9 sequence (P41595 whole entry): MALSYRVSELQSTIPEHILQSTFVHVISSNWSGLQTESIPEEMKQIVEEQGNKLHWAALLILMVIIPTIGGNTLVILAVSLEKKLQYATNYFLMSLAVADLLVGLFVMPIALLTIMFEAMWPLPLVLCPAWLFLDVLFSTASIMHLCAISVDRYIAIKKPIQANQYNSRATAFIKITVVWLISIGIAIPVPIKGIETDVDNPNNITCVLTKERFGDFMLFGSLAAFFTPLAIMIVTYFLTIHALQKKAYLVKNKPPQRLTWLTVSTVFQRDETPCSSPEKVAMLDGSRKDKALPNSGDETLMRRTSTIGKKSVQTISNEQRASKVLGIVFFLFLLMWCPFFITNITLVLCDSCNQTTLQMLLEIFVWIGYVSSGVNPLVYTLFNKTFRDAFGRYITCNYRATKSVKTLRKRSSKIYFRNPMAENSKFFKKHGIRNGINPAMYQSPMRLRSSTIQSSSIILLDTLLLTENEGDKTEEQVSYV

[41] = target: T9, 5-hydroxytryptamine receptor 2B; assay: Inhibition of 5HT2B receptor by competition radioligand binding assay
[42] = target: T4, 5-hydroxytryptamine receptor 6; assay: Activity at 5HT6 receptor assessed as calcium mobilization by FLIPR; format: functional
[43] = Plasma concentration in Sprague-Dawley rat at 1 mg/kg, iv after 1 hr; format: ADME, organism-based; set-up: dose 1 mg/kg, route intravenous
[44] = Cmax in Sprague-Dawley rat at 30 mg/kg, po; format: ADME, organism-based; set-up: dose 30 mg/kg, route oral; conditions: in vivo
[45] = Half life in Sprague-Dawley rat at 30 mg/kg, po; format: ADME, organism-based; set-up: dose 30 mg/kg, route oral; conditions: in vivo
Mus musculus [46] = assay: Antidepressant activity in Swiss Webster mouse assessed as decrease in immobility time at 30 mg/kg, ip after 30 mins by tail suspension test; format: functional; set-up: scale not given: the % may be the effect or the level left; conditions: route intraperitoneal
[47] = Plasma concentration in Sprague-Dawley rat at 1 mg/kg, iv after 0.033 hrs; format: ADME, organism-based; set-up: dose 1 mg/kg, route intravenous
[48] = Cmax in Sprague-Dawley rat at 30 mg/kg, ip; format: ADME, organism-based; set-up: dose 30 mg/kg, route intraperitoneal; conditions: in vivo
[49] = target: T7, 5-hydroxytryptamine receptor 1D; assay: Activity at 5HT1D receptor assessed as calcium mobilization by FLIPR; format: functional
[50] = Plasma concentration in Sprague-Dawley rat at 30 mg/kg, po after 4 hrs; format: ADME, organism-based; set-up: dose 30 mg/kg, route oral
[51] = Plasma concentration in Sprague-Dawley rat at 30 mg/kg, ip after 2 hrs; format: ADME, organism-based; set-up: dose 30 mg/kg, route intraperitoneal
[52] = AUC (0 to infinity) in Sprague-Dawley rat at 1 mg/kg, iv; format: ADME, organism-based; set-up: time infinity, dose 1 mg/kg, route intravenous; conditions: plasma
[53] = Plasma concentration in Sprague-Dawley rat at 1 mg/kg, iv after 6 hrs; format: ADME, organism-based; set-up: dose 1 mg/kg, route intravenous
[54] = Plasma concentration in Sprague-Dawley rat at 1 mg/kg, iv after 4 hrs; format: ADME, organism-based; set-up: dose 1 mg/kg, route intravenous
[55] = target: T6, 5-hydroxytryptamine receptor 1B; assay: Activity at 5HT1B receptor assessed as calcium mobilization by FLIPR; format: functional

- Activity [1]: 38%
- inhibition [2]: 31%
SMILES: OC1(C(CN2CCNCC2)c2ccccc2F)CCCCC1 (stereo not given)

- inhibition [3]: 24%
- Activity [4]: 9%
- Ki [5]: 0.519 µM
- inhibition [2]: 34%
SMILES: COc1ccc(C(CN2CCNCC2)C2(O)CCCCC2)cc1 (stereo not given)

- inhibition [3]: 11%
- Activity [4]: 0%
- inhibition [2]: 34%
SMILES: COc1ccc(C(CN2CCN(C)CC2)C2(O)CCCCC2)cc1 (stereo not given)

- IC50 [6]: 1.45 µM
- inhibition [3]: 32%
- Activity [4]: 0%
- Ki [5]: 1.38 µM
SMILES: CN1CCN(CC(c2ccc(F)cc2)C2(O)CCCCC2)CC1 (stereo not given)

- Activity [1]: 34%
- inhibition [2]: 19%
SMILES: CN1CCN(CC(c2ccccc2F)C2(O)CCCCC2)CC1 (stereo not given)

- IC50 [6]: 0.038 µM
- Ki [7]: 0.045 µM
- Ki [5]: 0.018 µM
- IC50 [8]: 4.96 µM
SMILES: OC1(C(CN2CCNCC2)c2cccc(Cl)c2)CCCCC1 (stereo not given)

- inhibition [3]: 4%
- Activity [4]: 5%
SMILES: CN1CCN(C[C@@H](c2cccc(OC(F)(F)F)c2)C2(O)CCCCC2)CC1

- inhibition [3]: 3%
- IC50 [9]: > 10 µM
- Activity [4]: 6%
- concentration at 1 h [10]: 304 ng/mL
- concentration at […] [11]: 225 ng/mL
- EC50 [12]: > 10 µM
- IC50 [13]: > 10 µM
- EC50 [14]: > 10 µM
- concentration at 1 h [15]: 1960 ng/mL
- concentration at 8 h [16]: 14.3 ng/mL
- concentration at 2 h [17]: 182 ng/mL
- AUC(0-inf) [18]: 6160 ng·h/mL
- concentration at 0.5 h [19]: 323 ng/mL
- half-life [20]: 2.3 h
- concentration at 0.5 h [21]: 2160 ng/mL
- concentration at […] [22]: 1580 ng/mL
- IC50 [23]: > 10 µM
- concentration at 0.5 h [25]: 187 ng/mL
- IC50 [26]: > 10 µM
- concentration at 0.033 h [27]: 942 ng/mL
- AUC(0-inf) [28]: 931 ng·h/mL
- IC50 [29]: > 10 µM
- concentration at 8 h [30]: 143 ng/mL
- concentration at 6 h [31]: 303 ng/mL
- concentration at 4 h [33]: 520 ng/mL
- concentration at 2 h [35]: 55.4 ng/mL
- EC50 [36]: > 10 µM
- IC50 [37]: > 10 µM
- concentration at 6 h [38]: 36.5 ng/mL
- concentration at […] [39]: 115 ng/mL
- EC50 [40]: > 10 µM
- IC50 [41]: > 10 µM
- EC50 [42]: > 10 µM
- concentration at 1 h [43]: 109 ng/mL
- Cmax [44]: 324 ng/mL
- half-life [45]: 1.6 h
- concentration at 0.033 h [47]: 164 ng/mL
- Cmax [48]: 2690 ng/mL
- EC50 [49]: > 10 µM
- concentration at 4 h [50]: 79.5 ng/mL
- concentration at 2 h [51]: 735 ng/mL
- AUC(0-inf) [52]: 367 ng·h/mL
- concentration at 6 h [53]: 2.98 ng/mL
- concentration at 4 h [54]: 19.1 ng/mL
- EC50 [55]: > 10 µM
SMILES: CN1CCN(C[C@H](c2cccc(OC(F)(F)F)c2)C2(O)CCCCC2)CC1.Cl.Cl
- Activity (Rattus norvegicus [24]): -2.75 °C
- Activity (Mus musculus [32]): 38%
- Activity (Rattus norvegicus [34]): -2.16 °C
- Activity (Mus musculus [46]): 53%
